Data taken from patent publication US20250295646A1, “METHODS OF USE OF T-TYPE CALCIUM CHANNEL MODULATORS” (Praxis Precision Medicines, Inc., priority 2022, published 2025).

Tested on: adult patients with essential tremor
Experiment: Example 16: accelerometer-based (Kinesia ONE) TETRAS upper limb score
Assay type: in vivo, human
Source text: Accelerometer (Kinesia ONE) TETRAS assessments were generally consistent with those conducted at the clinic. Accelerometer upper limb score values are summarized for Part A, the open-label titration phase of Part B, and the randomized withdrawal phase of Part B in Table 37, Table 38, and Table 39, respectively

[1] = Part B Open-Label Titration (N = 17), Day 42, Post - dose
[2] = Part B Open-Label Titration (N = 17), Day 42, Pre - dose
[3] = Part B Open-Label Titration, pre-dose baseline upper limb scores ≥10 (N = 12), Day 1, Post - dose
[4] = Part B Open-Label Titration, pre-dose baseline upper limb scores ≥10 (N = 12), Day 7
[5] = Part B Open-Label Titration, pre-dose baseline upper limb scores ≥10 (N = 12), Day 21
[6] = Part B Open-Label Titration, pre-dose baseline upper limb scores ≥10 (N = 12), Day 42, Post - dose
[7] = Part B Open-Label Titration, pre-dose baseline upper limb scores ≥10 (N = 12), Day 42, Pre - dose

CC(C)(C)NC(=O)CN1CCC(CNC(=O)c2cc(F)cc(Cl)c2)CC1 [compound of formula (I), N-((1-(2-(tert-butylamino)-2-oxoethyl)piperidin-4-yl)methyl)-3-chloro-5-fluorobenzamide]
Percentage Change from Baseline in Tremor Amplitude, Median (Part B Open-Label Titration (N = 17), Day 21): −17.46%
Accelerometer-Based Upper Limb Score, Change from Baseline, LS Mean (SE) [1]: −1.798 (0.4511)
Accelerometer-Based Upper Limb Score, Change from Baseline, Mean (SD) [1]: −1.73 (2.009)
Accelerometer-Based Upper Limb Score, Change from Baseline, Median [1]: −2.40
Accelerometer-Based Upper Limb Score, observed, Mean (SD) [1]: 9.44 (2.857)
Accelerometer-Based Upper Limb Score, observed, Median [1]: 8.60
LS Mean Percentage Change in Tremor Amplitude [1]: −29.2%
Percentage Change from Baseline in Tremor Amplitude, Mean (SD) [1]: −24.06 (27.567) %
Percentage Change from Baseline in Tremor Amplitude, Median [1]: −36.90%
Accelerometer-Based Upper Limb Score, Change from Baseline, LS Mean (SE) [2]: −1.766 (0.5175)
Accelerometer-Based Upper Limb Score, Change from Baseline, Mean (SD) [2]: −1.70 (1.829)
Accelerometer-Based Upper Limb Score, Change from Baseline, Median [2]: −2.00
Accelerometer-Based Upper Limb Score, observed, Mean (SD) [2]: 9.48 (3.369)
Accelerometer-Based Upper Limb Score, observed, Median [2]: 9.65
LS Mean Percentage Change in Tremor Amplitude [2]: −28.7%
Percentage Change from Baseline in Tremor Amplitude, Mean (SD) [2]: −24.79 (26.969) %
Percentage Change from Baseline in Tremor Amplitude, Median [2]: −31.87%
Accelerometer-Based Upper Limb Score, Change from Baseline, LS Mean (SE) [3]: −0.764 (0.4030)
Accelerometer-Based Upper Limb Score, Change from Baseline, Mean (SD) [3]: −0.75 (1.696)
Accelerometer-Based Upper Limb Score, Change from Baseline, Median [3]: −0.93
Accelerometer-Based Upper Limb Score, observed, Mean (SD) [3]: 11.00 (2.303)
Accelerometer-Based Upper Limb Score, observed, Median [3]: 10.95
LS Mean Percentage Change in Tremor Amplitude [3]: −13.6%
Percentage Change from Baseline in Tremor Amplitude, Mean (SD) [3]: −11.30 (25.126) %
Percentage Change from Baseline in Tremor Amplitude, Median [3]: −16.10%
Accelerometer-Based Upper Limb Score, Change from Baseline, LS Mean (SE) [4]: −1.677 (0.4345)
Accelerometer-Based Upper Limb Score, Change from Baseline, Mean (SD) [4]: −2.03 (1.939)
Accelerometer-Based Upper Limb Score, Change from Baseline, Median [4]: −2.05
Accelerometer-Based Upper Limb Score, observed, Mean (SD) [4]: 9.96 (3.151)
Accelerometer-Based Upper Limb Score, observed, Median [4]: 11.10
LS Mean Percentage Change in Tremor Amplitude [4]: −27.5%
Percentage Change from Baseline in Tremor Amplitude, Mean (SD) [4]: −28.60 (24.257) %
Percentage Change from Baseline in Tremor Amplitude, Median [4]: −32.52%
Accelerometer-Based Upper Limb Score, Change from Baseline, LS Mean (SE) [5]: −2.295 (0.6539)
Accelerometer-Based Upper Limb Score, Change from Baseline, Mean (SD) [5]: −2.04 (2.248)
Accelerometer-Based Upper Limb Score, Change from Baseline, Median [5]: −1.48
Accelerometer-Based Upper Limb Score, observed, Mean (SD) [5]: 9.91 (2.999)
Accelerometer-Based Upper Limb Score, observed, Median [5]: 10.98
LS Mean Percentage Change in Tremor Amplitude [5]: −35.6%
Percentage Change from Baseline in Tremor Amplitude, Mean (SD) [5]: −27.37 (27.794) %
Percentage Change from Baseline in Tremor Amplitude, Median [5]: −24.34%
Accelerometer-Based Upper Limb Score, Change from Baseline, LS Mean (SE) [6]: −1.818 (0.5342)
Accelerometer-Based Upper Limb Score, Change from Baseline, Mean (SD) [6]: −1.87 (2.027)
Accelerometer-Based Upper Limb Score, Change from Baseline, Median [6]: −2.40
Accelerometer-Based Upper Limb Score, observed, Mean (SD) [6]: 9.93 (2.878)
Accelerometer-Based Upper Limb Score, observed, Median [6]: 10.40
LS Mean Percentage Change in Tremor Amplitude [6]: −29.4%
Percentage Change from Baseline in Tremor Amplitude, Mean (SD) [6]: −26.06 (27.100) %
Percentage Change from Baseline in Tremor Amplitude, Median [6]: −36.90%
Accelerometer-Based Upper Limb Score, Change from Baseline, LS Mean (SE) [7]: −1.559 (0.5803)
Accelerometer-Based Upper Limb Score, Change from Baseline, Mean (SD) [7]: −1.57 (1.914)
Accelerometer-Based Upper Limb Score, Change from Baseline, Median [7]: −2.00
Accelerometer-Based Upper Limb Score, observed, Mean (SD) [7]: 10.23 (3.244)
Accelerometer-Based Upper Limb Score, observed, Median [7]: 11.15
LS Mean Percentage Change in Tremor Amplitude [7]: −25.9%
Percentage Change from Baseline in Tremor Amplitude, Mean (SD) [7]: −22.96 (28.661) %
Percentage Change from Baseline in Tremor Amplitude, Median [7]: −31.87%
